Legend:
[1] = biological target: T1, human glycogen phosphorylase a (Homo sapiens, UniProt P06737); assay: Glycogen phosphorylase a activity test (reverse direction, release of inorganic phosphate); format: biochemical; details: 10 μM test substance; duplicate determinations; 40 min at room temperature
T1 sequence (P06737 2-847 limits assumed): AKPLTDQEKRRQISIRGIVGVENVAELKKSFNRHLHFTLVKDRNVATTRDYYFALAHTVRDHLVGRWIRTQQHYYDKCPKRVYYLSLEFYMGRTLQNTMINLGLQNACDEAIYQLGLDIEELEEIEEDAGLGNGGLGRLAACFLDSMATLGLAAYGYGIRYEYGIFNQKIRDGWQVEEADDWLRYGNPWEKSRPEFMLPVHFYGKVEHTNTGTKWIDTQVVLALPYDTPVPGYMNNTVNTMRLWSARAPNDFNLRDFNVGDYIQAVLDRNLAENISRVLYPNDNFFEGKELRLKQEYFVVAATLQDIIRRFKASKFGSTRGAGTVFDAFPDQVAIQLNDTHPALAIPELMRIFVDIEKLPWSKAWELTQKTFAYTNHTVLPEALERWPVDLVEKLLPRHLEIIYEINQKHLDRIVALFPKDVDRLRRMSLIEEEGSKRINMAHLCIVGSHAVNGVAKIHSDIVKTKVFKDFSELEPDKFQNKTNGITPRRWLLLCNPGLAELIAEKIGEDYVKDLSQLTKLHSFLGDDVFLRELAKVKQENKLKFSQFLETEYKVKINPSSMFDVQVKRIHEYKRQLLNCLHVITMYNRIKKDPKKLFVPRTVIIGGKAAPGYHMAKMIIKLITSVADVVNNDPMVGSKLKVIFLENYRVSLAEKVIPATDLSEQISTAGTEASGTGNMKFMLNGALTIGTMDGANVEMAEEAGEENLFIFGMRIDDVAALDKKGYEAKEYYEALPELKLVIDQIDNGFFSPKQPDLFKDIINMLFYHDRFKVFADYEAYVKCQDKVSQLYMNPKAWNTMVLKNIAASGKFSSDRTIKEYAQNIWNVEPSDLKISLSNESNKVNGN
Experimental: Glycogen Phophorylase a Activity Test
All reactions were carried out as duplicate determinations in 96-well microtiter plates (half area plates, Costar No. 3696), and the change in absorption as a consequence of the formation of the reaction product was measured at the wavelength specified below in a Multiskan Ascent Elisa Reader (Lab Systems, Finland).
In order to measure the GPa enzyme activity in the reverse direction, the conversion of glucose 1-phosphate to glycogen and inorganic phosphate was measured by the general method of Engers et al. (Engers H D, Shechosky S, Madsen N B, Can J Biochem 1970 July;48(7):746–754) with the following modifications: human glycogen phosphorylase a (for example containing 0.76 mg of protein/ml (Aventis Pharma Deutschland GmbH), dissolved in buffer solution E (25 mM β-glycerophosphate, pH 7.0, 1 mM EDTA and 1 mM dithiothreitol) was diluted to a concentration of 10 μg of protein/ml with buffer T (50 mM Hepes, pH 7.0, 100 mM KCl, 2.5 mM EDTA, 2.5 mM MgCl26H2O) and addition of 5 mg/ml of glycogen. Test substances were prepared as a 10 mM solution in DMSO and diluted to 50 μM with buffer solution T. To 10 μl of this solution were added 10 μl of 37.5 mM glucose dissolved in buffer solution T and 5 mg/ml of glycogen, and also 10 μl of a solution of human glycogen phosphorylase a (10 μg of protein/ml) and 20 μl of 2.5 mM glucose 1-phosphate. The base value of the activity of glycogen phosphorylase a in the absence of test substance was determined by adding 10 μl of buffer solution T (0.1% DMSO). The mixture was incubated at room temperature for 40 minutes and the released inorganic phosphate was determined by means of the general method of Drueckes et al. (al (Drueckes P, Schinzel R, Palm D, Anal Biochem 1995 Sep. 1;230(1):173–177) with the following modifications: 50 μl of a stop solution of 7.3 mM of ammonium molybdate, 10.9 mM of zinc acetate, 3.6% of ascorbic acid, 0.9% of SDS are added to 50 μl of the enzyme mixture. After 60 minutes of incubation at 45° C., the absorption was measured at 820 nm. To determine the background absorption, the stop solution was added immediately after the addition of the glucose 1-phosphate solution in a separate reaction. This test was carried out at a concentration of 10 μM of the test substance, in order to determine the respective inhibition of glycogen phosphorylase a by the test substance in vitro.

[2] = biological target: T1, human glycogen phosphorylase a; assay: as above; format: biochemical; details: 10 μM test substance; duplicate determinations; 40 min at room temperature; remark: listed apart in the source

Row | Structure (SMILES) | melting point | % inhibition at 10 μM [1] | IC50 at 10 μM [2]
1 | O=C(NC(=O)c1cc(F)c(F)cc1Cl)Nc1cc(F)ccc1N1CCC(C(=O)[O-])CC1.[Na+] | 160.9 °C | – | –
2 | O=C(NC(=O)c1ccc(F)cc1Cl)Nc1ccccc1-c1nnc(O)o1 [Example 8d, 1-(2-chloro-4-fluorobenzoyl)-3-[2-(5-hydroxy-[1,3,4]oxadiazol-2-yl)phenyl]urea] | 229.7 °C | 100% | –
3 | COC(=O)C1CCN(c2ccc(F)cc2NC(=O)NC(=O)c2cc(F)c(F)cc2Cl)CC1 [Example 39] | – | – | 10 nM
4 | O=C(NC(=O)c1cc(F)c(F)cc1Cl)Nc1cc(F)ccc1N1CCCC(C(=O)O)C1 (centres unmarked) [Example 17] | – | – | 10 nM
5 | COc1cc(-c2nnc(O)o2)ccc1NC(=O)NC(=O)c1cc(F)c(F)cc1Cl [Example 8e, 1-(2-chloro-4,5-difluorobenzoyl)-3-[4-(5-hydroxy-[1,3,4]oxadiazol-2-yl)-2-methoxyphenyl]urea] | 293.1 °C | 97% | –
6 | O=C(NC(=O)c1cc(F)c(F)cc1Cl)Nc1ccccc1-c1nnc(O)o1 [Example 8f, 1-(2-chloro-4,5-difluorobenzoyl)-3-[2-(5-hydroxy-[1,3,4]oxadiazol-2-yl)phenyl]urea] | 222.9 °C | 99% | –
7 | CNc1nn(-c2ccc(NC(=O)NC(=O)c3ccc(F)cc3Cl)c(C)c2)c(=O)o1 [Example 9f, 1-(2-chloro-4-fluorobenzoyl)-3-(2-methyl-4-(5-methylamino-2-oxo-3H-[1,3,4]-oxadiazol-3-yl)phenyl)urea] | 198 °C | 54% | –
8 | O=C(NC(=O)c1cc(F)c(F)cc1Cl)Nc1ccc(-c2n[nH]c(O)n2)cc1OC(F)(F)F [Example 6f, 1-(2-chloro-4,5-difluorobenzoyl)-3-[2-trifluoromethoxy-4-(5-hydroxy-1H-[1,2,4]triazol-3-yl)phenyl]urea] | > 350 °C | 98% | –
9 | COC(=O)C1CCN(c2ccc(Cl)cc2NC(=O)NC(=O)c2cc(F)c(F)cc2Cl)CC1 [Example 29] | – | – | 10 nM
10 | O=C(NC(=O)c1cc(F)c(F)cc1Cl)Nc1ccccc1-c1nnco1 [Example 8h, 1-(2-chloro-4,5-difluorobenzoyl)-3-(2-[1,3,4]oxadiazol-2-ylphenyl)urea] | 199.6 °C | 100% | –
11 | O=C(NC(=O)c1cc(F)c(F)cc1Cl)Nc1cc(F)ccc1N1CCC(C(=O)O)CC1 [Example 16c, 1-{2-[3-(2-chloro-4,5-difluorobenzoyl)ureido]-4-fluorophenyl}piperidine-4-carboxylic acid] | 221.7 °C | – | –
12 | O=C(NC(=O)c1ccc(F)cc1Cl)Nc1ccccc1-c1nnco1 [Example 8g, 1-(2-chloro-4-fluorobenzoyl)-3-(2-[1,3,4]oxadiazol-2-ylphenyl)urea] | 204 °C | 98% | –
13 | O=C(NC(=O)c1cc(F)c(F)cc1Cl)Nc1cc(Cl)ccc1N1CCCC(C(=O)O)C1 (centres unmarked) [Example 31] | – | – | 10 nM
14 | NC(=O)C1CCCN(c2ccc(F)cc2NC(=O)NC(=O)c2ccc(F)cc2Cl)C1 (centres unmarked) [Example 19] | – | 1.0% | –
15 | O=C(NC(=O)c1ccc(F)cc1Cl)Nc1cc(Cl)ccc1N1CCCC(C(=O)O)C1 (centres unmarked) [Example 32] | – | 0.03% | –
16 | COc1cc(-c2nnc(C)[nH]2)ccc1NC(=O)NC(=O)c1ccc(F)cc1Cl [Example 2c, 1-(2-chloro-4-fluorobenzoyl)-3-[2-methoxy-4-(5-methyl-4H-[1,2,4]triazol-3-yl)-phenyl]urea] | – | 94% | –
17 | Nc1nnc(-c2ccccc2NC(=O)NC(=O)c2cc(F)c(F)cc2Cl)o1 [Example 10c, 1-[2-(5-amino-[1,3,4]oxadiazol-2-yl)phenyl]-3-(2-chloro-4,5-difluorobenzoyl)urea] | – | 100% | –
18 | CCOC(=O)C1CCCN(c2ccc(F)cc2NC(=O)NC(=O)c2cc(F)c(F)cc2Cl)C1 (centres unmarked) [Example 35] | – | 0.3% | –

Other lines, results leading:

Row | melting point | % inhibition at 10 μM [1] | IC50 at 10 μM [2] | Structure (SMILES)
19 | 243.6 °C | 98% | – | O=C(NC(=O)c1ccc(F)cc1Cl)Nc1ccc(-c2noc(=O)[nH]2)cc1Cl [Example 11f, 1-(2-chloro-4-fluorobenzoyl)-3-[2-chloro-4-(5-oxo-4,5-dihydro-[1,2,4]oxadiazol-3-yl)phenyl]urea]
20 | 239.3 °C | 100% | – | O=C(NC(=O)c1cc(F)c(F)cc1Cl)Nc1ccccc1-c1ccc(C(=O)O)o1 [Example 13b, 5-{2-[3-(2-chloro-4,5-difluorobenzoyl)ureido]phenyl}furan-2-carboxylic acid]
21 | 230.1 °C | 98% | – | O=C(NC(=O)c1ccc(F)cc1Cl)Nc1ccc(-c2noc(=O)[nH]2)cc1OC(F)(F)F [Example 11e, 1-(2-chloro-4-fluorobenzoyl)-3-[4-(5-oxo-4,5-dihydro-[1,2,4]oxadiazol-3-yl)-2-trifluoromethoxyphenyl]urea]
22 | 236.3 °C | 100% | – | O=C(NC(=O)c1ccc(F)cc1Cl)Nc1ccccc1-c1ccc(C(=O)O)o1 [Example 13c, 5-{2-[3-(2-chloro-4-fluorobenzoyl)ureido]phenyl}furan-2-carboxylic acid]
23 | 216 °C | 0.3% | – | NC(=O)C1CCCN(c2ccc(F)cc2NC(=O)NC(=O)c2cc(F)c(F)cc2Cl)C1 (centres unmarked) [Example 15c, 1-{2-[3-(2-chloro-4,5-difluorobenzoyl)ureido]-4-fluorophenyl}piperidine-3-carboxamide]

Reference: patent US7138414B2, “Heterocyclically substituted benzoylureas, process for their preparation and their use as pharmaceuticals” (Sanofi-Aventis Deutschland GmbH, priority 2002, dated 2006)
